Columns and labels:
[1] = system: panel of 32 bromodomains; assay: DSF selectivity screen, whole panel; type: binding; conditions: 10 μM compound
Procedure: (§1) The effects of inhibitor binding on the apparent melting temperature of recombinant bromodomains were determined by DSF in a 96-well plate (Starlab) at a protein concentration of 2 μM with 10 μΜ compound in buffer containing 25 mM HEPES, pH 7.5, 150 mM NaCl, and 0.5 mM TCEP. […] Protein unfolding profiles were recorded using an MX3005P real-time qPCR instrument (Agilent; excitation/emission filters = 492/610 nm) while increasing the temperature from 25 to 95 °C at a heating rate of 3 °C/min. Tm values were calculated after fitting the fluorescence curves to the Boltzmann equation. Differences in melting temperature upon compound binding are given as ΔTm = Tm (protein with inhibitor) – Tm (protein with DMSO control). Measurements were performed in triplicates.

[2] = target: T1, TAF1LA (2) (Homo sapiens, UniProt Q8IZX4); assay: DSF bromodomain selectivity panel; type: binding; conditions: 10 μM compound
T1 construct: TAF1LA (2); purchased in-house (SGC Frankfurt recombinant bromodomain DSF panel)
Procedure: as §1

[3] = target: T2, BRPF3 (Homo sapiens, UniProt Q9ULD4); assay: DSF bromodomain selectivity panel; type: binding; conditions: 10 μM compound
T2 construct: purchased in-house (SGC Frankfurt recombinant bromodomain DSF panel)
T2 sequence (Q9ULD4 whole entry): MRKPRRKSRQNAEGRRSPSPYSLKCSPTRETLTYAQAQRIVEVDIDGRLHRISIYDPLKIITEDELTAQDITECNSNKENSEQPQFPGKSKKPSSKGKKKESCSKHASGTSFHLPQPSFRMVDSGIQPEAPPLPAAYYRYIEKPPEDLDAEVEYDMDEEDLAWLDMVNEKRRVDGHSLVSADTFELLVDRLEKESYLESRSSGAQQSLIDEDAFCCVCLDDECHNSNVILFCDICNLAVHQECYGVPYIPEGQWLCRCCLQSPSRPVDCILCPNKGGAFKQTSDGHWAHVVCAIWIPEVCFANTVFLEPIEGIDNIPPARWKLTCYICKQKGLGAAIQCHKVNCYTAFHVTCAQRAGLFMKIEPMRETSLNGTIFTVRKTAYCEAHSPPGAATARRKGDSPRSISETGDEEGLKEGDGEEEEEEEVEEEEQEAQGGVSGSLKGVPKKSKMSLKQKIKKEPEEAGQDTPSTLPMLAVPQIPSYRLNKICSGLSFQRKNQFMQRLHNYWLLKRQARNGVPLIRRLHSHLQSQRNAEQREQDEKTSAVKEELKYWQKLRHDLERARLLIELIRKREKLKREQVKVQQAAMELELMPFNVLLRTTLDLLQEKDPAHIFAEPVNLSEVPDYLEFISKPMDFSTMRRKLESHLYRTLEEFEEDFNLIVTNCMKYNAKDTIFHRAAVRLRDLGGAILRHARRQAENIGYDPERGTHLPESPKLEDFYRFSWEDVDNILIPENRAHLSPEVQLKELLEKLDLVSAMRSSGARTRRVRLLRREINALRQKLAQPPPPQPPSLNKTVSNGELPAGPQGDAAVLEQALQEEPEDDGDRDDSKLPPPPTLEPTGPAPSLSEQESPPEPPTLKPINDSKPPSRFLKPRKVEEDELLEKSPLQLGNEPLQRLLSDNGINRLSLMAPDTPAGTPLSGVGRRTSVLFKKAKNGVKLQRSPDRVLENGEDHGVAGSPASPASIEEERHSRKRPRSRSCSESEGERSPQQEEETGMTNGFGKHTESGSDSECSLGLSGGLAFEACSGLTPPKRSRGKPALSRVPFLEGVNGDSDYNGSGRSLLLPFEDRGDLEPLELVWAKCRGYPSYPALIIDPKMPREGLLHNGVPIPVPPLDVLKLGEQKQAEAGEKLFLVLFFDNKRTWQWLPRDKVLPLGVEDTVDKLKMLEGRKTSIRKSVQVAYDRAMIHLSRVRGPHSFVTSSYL
Procedure: as §1

[4] = system: SP100; assay: DSF bromodomain selectivity panel; type: binding; conditions: 10 μM compound
Procedure: as §1

[5] = target: T3, BRDT(1) (Homo sapiens, UniProt Q58F21); assay: DSF bromodomain selectivity panel; type: binding; conditions: 10 μM compound
T3 construct: BRDT(1); purchased in-house (SGC Frankfurt recombinant bromodomain DSF panel)
Procedure: as §1

[6] = target: T4, TRIM24 (Homo sapiens, UniProt O15164); assay: DSF bromodomain selectivity panel; type: binding; conditions: 10 μM compound, construct containing tandem PHD-BD
T4 construct: purchased in-house (SGC Frankfurt recombinant bromodomain DSF panel)
Procedure: as §1

[7] = target: T5, CREBBPA (Homo sapiens, UniProt Q92793); assay: DSF bromodomain selectivity panel; type: binding; conditions: 10 μM compound
T5 construct: purchased in-house (SGC Frankfurt recombinant bromodomain DSF panel)
Procedure: as §1

[8] = target: T6, PB1A(6) (Homo sapiens, UniProt Q86U86); assay: DSF bromodomain selectivity panel; type: binding; conditions: 10 μM compound
T6 construct: PB1A(6); purchased in-house (SGC Frankfurt recombinant bromodomain DSF panel)
Procedure: as §1

[9] = target: T7, BRPF1B (Homo sapiens, UniProt P55201); assay: DSF bromodomain selectivity panel; type: binding; conditions: 10 μM compound
T7 construct: purchased in-house (SGC Frankfurt recombinant bromodomain DSF panel)
T7 sequence (P55201 whole entry): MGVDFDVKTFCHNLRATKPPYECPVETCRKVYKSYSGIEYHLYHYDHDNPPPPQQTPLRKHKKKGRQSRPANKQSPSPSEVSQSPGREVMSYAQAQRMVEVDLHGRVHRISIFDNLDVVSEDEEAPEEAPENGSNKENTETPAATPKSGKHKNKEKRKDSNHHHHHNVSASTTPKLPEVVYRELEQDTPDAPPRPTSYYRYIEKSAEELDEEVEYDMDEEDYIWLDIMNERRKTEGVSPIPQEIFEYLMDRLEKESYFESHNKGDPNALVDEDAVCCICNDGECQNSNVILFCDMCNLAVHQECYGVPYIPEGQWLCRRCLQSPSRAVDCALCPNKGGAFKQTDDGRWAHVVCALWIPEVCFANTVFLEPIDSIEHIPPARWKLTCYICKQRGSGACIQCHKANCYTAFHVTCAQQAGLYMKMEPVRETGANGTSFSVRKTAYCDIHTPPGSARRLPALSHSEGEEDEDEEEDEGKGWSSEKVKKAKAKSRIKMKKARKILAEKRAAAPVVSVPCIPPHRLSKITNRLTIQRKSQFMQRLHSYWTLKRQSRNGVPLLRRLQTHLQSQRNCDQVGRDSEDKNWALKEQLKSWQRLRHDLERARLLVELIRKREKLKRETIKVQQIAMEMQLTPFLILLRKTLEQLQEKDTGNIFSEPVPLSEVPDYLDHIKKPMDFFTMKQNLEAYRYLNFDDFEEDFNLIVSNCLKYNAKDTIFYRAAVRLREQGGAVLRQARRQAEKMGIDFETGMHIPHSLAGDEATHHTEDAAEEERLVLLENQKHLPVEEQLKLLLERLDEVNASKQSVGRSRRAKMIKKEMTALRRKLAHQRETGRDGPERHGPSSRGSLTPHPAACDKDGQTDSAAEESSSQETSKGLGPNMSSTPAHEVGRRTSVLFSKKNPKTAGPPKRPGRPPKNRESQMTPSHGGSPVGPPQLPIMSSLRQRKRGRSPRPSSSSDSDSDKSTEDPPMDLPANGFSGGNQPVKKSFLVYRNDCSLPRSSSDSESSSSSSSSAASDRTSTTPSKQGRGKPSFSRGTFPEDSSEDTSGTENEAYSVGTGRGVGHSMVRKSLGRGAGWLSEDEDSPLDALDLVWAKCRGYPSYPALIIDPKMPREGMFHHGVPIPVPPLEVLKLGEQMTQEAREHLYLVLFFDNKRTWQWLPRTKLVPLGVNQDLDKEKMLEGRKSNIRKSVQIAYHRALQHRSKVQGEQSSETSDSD
Procedure: as §1

[10] = target: T8, TRIM28 (Homo sapiens, UniProt Q13263); assay: DSF bromodomain selectivity panel; type: binding; conditions: 10 μM compound, construct containing tandem PHD-BD
T8 construct: purchased in-house (SGC Frankfurt recombinant bromodomain DSF panel)
T8 sequence (Q13263 whole entry): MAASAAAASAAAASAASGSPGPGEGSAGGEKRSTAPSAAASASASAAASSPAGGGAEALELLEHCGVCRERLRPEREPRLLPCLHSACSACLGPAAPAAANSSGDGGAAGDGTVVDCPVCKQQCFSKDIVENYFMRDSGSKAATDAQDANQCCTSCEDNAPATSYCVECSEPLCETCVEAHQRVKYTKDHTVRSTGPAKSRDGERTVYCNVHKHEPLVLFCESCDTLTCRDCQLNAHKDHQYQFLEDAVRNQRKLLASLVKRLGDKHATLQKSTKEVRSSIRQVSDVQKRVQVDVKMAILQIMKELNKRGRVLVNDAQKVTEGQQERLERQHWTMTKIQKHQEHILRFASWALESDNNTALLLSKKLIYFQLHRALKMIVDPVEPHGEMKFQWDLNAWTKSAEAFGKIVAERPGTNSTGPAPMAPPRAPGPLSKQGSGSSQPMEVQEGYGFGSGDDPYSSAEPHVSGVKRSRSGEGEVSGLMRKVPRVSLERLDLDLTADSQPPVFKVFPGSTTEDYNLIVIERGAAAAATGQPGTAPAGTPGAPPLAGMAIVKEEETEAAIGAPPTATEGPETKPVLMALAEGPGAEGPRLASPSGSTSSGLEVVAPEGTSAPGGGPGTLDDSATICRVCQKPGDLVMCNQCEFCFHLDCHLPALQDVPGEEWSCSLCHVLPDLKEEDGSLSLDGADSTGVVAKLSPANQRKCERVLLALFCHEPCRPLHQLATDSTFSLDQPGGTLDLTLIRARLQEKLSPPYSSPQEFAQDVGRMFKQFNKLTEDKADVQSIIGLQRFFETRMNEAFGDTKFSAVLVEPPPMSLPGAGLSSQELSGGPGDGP
Procedure: as §1

[11] = target: T9, PB1A(3) (Homo sapiens, UniProt Q86U86); assay: DSF bromodomain selectivity panel; type: binding; conditions: 10 μM compound
T9 construct: PB1A(3); purchased in-house (SGC Frankfurt recombinant bromodomain DSF panel)
Procedure: as §1

[12] = target: T10, BRD2 (2) (Homo sapiens, UniProt P25440); assay: DSF bromodomain selectivity panel; type: binding; conditions: 10 μM compound
T10 construct: BRD2 (2); purchased in-house (SGC Frankfurt recombinant bromodomain DSF panel)
Procedure: as §1

[13] = target: T11, TRIM33B (Homo sapiens, UniProt Q9UPN9); assay: DSF bromodomain selectivity panel; type: binding; conditions: 10 μM compound, construct containing tandem PHD-BD
T11 construct: purchased in-house (SGC Frankfurt recombinant bromodomain DSF panel)
Procedure: as §1

[14] = target: T12, TAF1 (1) (Homo sapiens, UniProt P21675); assay: DSF bromodomain selectivity panel; type: binding; conditions: 10 μM compound
T12 construct: TAF1 (1); purchased in-house (SGC Frankfurt recombinant bromodomain DSF panel)
T12 sequence (P21675 1397-1505 limits assumed): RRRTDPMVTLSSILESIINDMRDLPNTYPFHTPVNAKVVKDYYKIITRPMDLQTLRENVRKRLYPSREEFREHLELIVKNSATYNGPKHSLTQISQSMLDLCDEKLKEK
Procedure: as §1

[15] = target: T13, BRD1 (Homo sapiens, UniProt O95696); assay: DSF bromodomain selectivity panel; type: binding; conditions: 10 μM compound
T13 construct: purchased in-house (SGC Frankfurt recombinant bromodomain DSF panel)
T13 sequence (O95696 whole entry): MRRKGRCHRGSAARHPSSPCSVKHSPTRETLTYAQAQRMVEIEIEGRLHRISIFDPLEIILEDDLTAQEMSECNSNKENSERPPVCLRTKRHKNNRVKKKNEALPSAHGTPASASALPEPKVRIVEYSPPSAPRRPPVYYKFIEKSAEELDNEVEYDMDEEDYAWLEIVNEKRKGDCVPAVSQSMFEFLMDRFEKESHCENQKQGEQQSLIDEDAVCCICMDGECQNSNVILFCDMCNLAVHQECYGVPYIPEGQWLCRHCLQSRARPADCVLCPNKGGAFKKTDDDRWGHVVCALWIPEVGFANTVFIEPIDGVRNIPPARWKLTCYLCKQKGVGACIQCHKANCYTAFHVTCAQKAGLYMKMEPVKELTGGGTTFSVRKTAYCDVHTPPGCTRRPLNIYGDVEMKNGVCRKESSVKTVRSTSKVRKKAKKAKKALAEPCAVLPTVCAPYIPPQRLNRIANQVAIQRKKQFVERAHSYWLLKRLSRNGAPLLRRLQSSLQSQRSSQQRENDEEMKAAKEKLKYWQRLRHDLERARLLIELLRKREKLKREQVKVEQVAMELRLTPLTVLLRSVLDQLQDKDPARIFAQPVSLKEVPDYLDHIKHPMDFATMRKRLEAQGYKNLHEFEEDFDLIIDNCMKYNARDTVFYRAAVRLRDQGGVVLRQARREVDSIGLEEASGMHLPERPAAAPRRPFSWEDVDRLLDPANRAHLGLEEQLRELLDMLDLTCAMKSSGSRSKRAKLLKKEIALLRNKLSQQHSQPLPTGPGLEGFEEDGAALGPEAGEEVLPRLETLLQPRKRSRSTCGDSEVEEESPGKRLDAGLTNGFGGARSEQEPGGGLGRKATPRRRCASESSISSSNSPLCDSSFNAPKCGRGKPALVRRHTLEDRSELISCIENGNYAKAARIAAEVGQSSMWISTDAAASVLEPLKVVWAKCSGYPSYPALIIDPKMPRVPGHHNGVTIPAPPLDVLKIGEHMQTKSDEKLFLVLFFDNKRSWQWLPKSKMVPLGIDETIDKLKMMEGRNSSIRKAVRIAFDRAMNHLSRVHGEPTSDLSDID
Procedure: as §1

[16] = target: T14, BRD7 (Homo sapiens, UniProt Q9NPI1); assay: DSF bromodomain selectivity panel; type: binding; conditions: 10 μM compound
T14 construct: purchased in-house (SGC Frankfurt recombinant bromodomain DSF panel)
Procedure: as §1

[17] = target: T15, TAF1 (2) (Homo sapiens, UniProt P21675); assay: DSF bromodomain selectivity panel; type: binding; conditions: 10 μM compound
T15 construct: TAF1 (2); purchased in-house (SGC Frankfurt recombinant bromodomain DSF panel)
T15 sequence (P21675 1522-1656 limits assumed): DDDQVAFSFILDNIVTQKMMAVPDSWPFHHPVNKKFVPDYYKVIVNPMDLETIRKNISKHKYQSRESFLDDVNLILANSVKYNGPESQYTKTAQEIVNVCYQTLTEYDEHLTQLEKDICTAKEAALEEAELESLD
Procedure: as §1

[18] = target: T16, PB1A(5) (Homo sapiens, UniProt Q86U86); assay: DSF bromodomain selectivity panel; type: binding; conditions: 10 μM compound
T16 construct: PB1A(5); purchased in-house (SGC Frankfurt recombinant bromodomain DSF panel)
Procedure: as §1

[19] = target: T17, WDR9A(1) (Homo sapiens, UniProt Q9NSI6); assay: DSF bromodomain selectivity panel; type: binding; conditions: 10 μM compound
T17 construct: WDR9A(1); purchased in-house (SGC Frankfurt recombinant bromodomain DSF panel)
T17 sequence (Q9NSI6 1150-1280 limits assumed): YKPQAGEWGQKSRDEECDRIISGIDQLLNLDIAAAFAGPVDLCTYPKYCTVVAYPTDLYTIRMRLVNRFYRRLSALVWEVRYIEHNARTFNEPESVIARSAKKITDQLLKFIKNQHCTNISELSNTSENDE
Procedure: as §1

[20] = target: T18, BRD2 (1) (Homo sapiens, UniProt P25440); assay: DSF bromodomain selectivity panel; type: binding; conditions: 10 μM compound
T18 construct: BRD2 (1); purchased in-house (SGC Frankfurt recombinant bromodomain DSF panel)
T18 sequence (P25440 71-194 limits assumed): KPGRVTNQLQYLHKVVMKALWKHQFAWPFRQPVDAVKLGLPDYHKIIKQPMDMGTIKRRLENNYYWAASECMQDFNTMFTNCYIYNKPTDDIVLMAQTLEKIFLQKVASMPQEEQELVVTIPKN
Procedure: as §1

[21] = target: T19, BAZ2B (Homo sapiens, UniProt Q9UIF8); assay: DSF bromodomain selectivity panel; type: binding; conditions: 10 μM compound
T19 construct: purchased in-house (SGC Frankfurt recombinant bromodomain DSF panel)
Procedure: as §1

[22] = target: T20, TAF1LA (1) (Homo sapiens, UniProt Q8IZX4); assay: DSF bromodomain selectivity panel; type: binding; conditions: 10 μM compound
T20 construct: TAF1LA (1); purchased in-house (SGC Frankfurt recombinant bromodomain DSF panel)
Procedure: as §1

[23] = target: T21, BRD3 (2) (Homo sapiens, UniProt Q15059); assay: DSF bromodomain selectivity panel; type: binding; conditions: 10 μM compound
T21 construct: BRD3 (2); purchased in-house (SGC Frankfurt recombinant bromodomain DSF panel)
Procedure: as §1

[24] = target: T22, BRD9 (Homo sapiens, UniProt Q9H8M2); assay: DSF bromodomain selectivity panel; type: binding; conditions: 10 μM compound
T22 construct: purchased in-house (SGC Frankfurt recombinant bromodomain DSF panel)
Procedure: as §1

[25] = target: T23, BRD3 (1) (Homo sapiens, UniProt Q15059); assay: DSF bromodomain selectivity panel; type: binding; conditions: 10 μM compound
T23 construct: BRD3 (1); purchased in-house (SGC Frankfurt recombinant bromodomain DSF panel)
T23 sequence (Q15059 24-144 limits assumed): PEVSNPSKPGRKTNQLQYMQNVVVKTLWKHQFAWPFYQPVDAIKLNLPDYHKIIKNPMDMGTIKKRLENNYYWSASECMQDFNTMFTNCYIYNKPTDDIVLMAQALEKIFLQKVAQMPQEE
Procedure: as §1

[26] = system: HEXIM1 mRNA in PaTu8988T cells; assay: Quantitative RT-PCR of BET-inhibition biomarker; type: cell-based; conditions: 6 h, 1 μΜ compound
Procedure: Total RNA was extracted from cell culture using the Maxwell RSC simply RNA Cells Kit (Promega) according to the manufacturer’s protocol. cDNA was synthesized using PrimeScript Reverse Transcriptase (TakaRa) and amplified using homemade PCR master mix. The amplicon was detected by EvaGreen Dye using a LightCycler 480 instrument (Roche). PCR conditions were 5 min at 95 °C, followed by 45 cycles of 95 °C for 10 s, 59 °C for 10 s, and 72 °C for 20 s. The relative gene expression levels were normalized to GUSB and calculated using the 2^–ΔΔC^t method.

Row | SMILES | bromodomain selectivity in DSF screen [1] | Mean Tm TAF1LA (2) [2] [K] | Mean Tm BRPF3 [3] [K] | Mean Tm SP100 [4] [K] | Mean Tm BRDT(1) [5] [K] | Mean Tm TRIM24 [6] [K] | Mean Tm CREBBPA [7] [K] | Mean Tm PB1A(6) [8] [K] | Mean Tm BRPF1B [9] [K] | Mean Tm TRIM28 [10] [K] | Mean Tm PB1A(3) [11] [K] | Mean Tm BRD2 (2) [12] [K] | Mean Tm TRIM33B [13] [K] | Mean Tm TAF1 (1) [14] [K] | Mean Tm BRD1 [15] [K] | Mean Tm BRD7 [16] [K] | Mean Tm TAF1 (2) [17] [K] | Mean Tm PB1A(5) [18] [K] | Mean Tm WDR9A(1) [19] [K] | Mean Tm BRD2 (1) [20] [K] | also measured
1 | Cn1cc(-c2ccc(C(=O)Nc3ccccc3N)cc2)c2cc[nH]c2c1=O [NB462] | BRD7 and BRD9 as prominent off-targets | 1.7 ± 0.1 | -0.5 ± 0.1 | -0.2 ± 0.1 | 3.0 ± 0.2 | 0.6 ± 0.1 | 1.8 ± 0.3 | 0.3 ± 0.1 | 0.8 ± 0.1 | 0.6 ± 0.4 | 0.5 ± 0.2 | 5.3 ± 0.1 | 0.4 ± 0.1 | 0.4 ± 0.1 | 0.2 ± 0.1 | 5.6 ± 0.3 | 1.3 ± 0.0 | 0.0 ± 0.1 | -0.3 ± 0.2 | 3.1 ± 0.5 | Mean Tm BAZ2B [21]: 0.5 ± 0.0 K; Mean Tm TAF1LA (1) [22]: 0.3 ± 0.1 K; Mean Tm BRD3 (2) [23]: 6.1 ± 0.0 K; Mean Tm BRD9 [24]: 5.2 ± 1.2 K; Mean Tm BRD3 (1) [25]: 3.8 ± 0.3 K
2 | Cn1cc(-c2ccc(C(=O)Nc3cc(-c4ccccc4)ccc3N)cc2)c2cc[nH]c2c1=O [NB503] | high selectivity for BET bromodomains | 1.2 ± 0.0 | 1.2 ± 0.1 | 0.4 ± 0.1 | 3.3 ± 0.1 | 0.7 ± 0.5 | 1.4 ± 0.3 | 1.3 ± 0.1 | 0.8 ± 0.3 | 0.0 ± 0.2 | 0.0 ± 0.0 | 3.6 ± 0.4 | 0.5 ± 0.0 | 1.0 ± 0.2 | 1.1 ± 0.1 | 1.1 ± 0.2 | 1.7 ± 0.1 | 1.1 ± 0.2 | 0.0 ± 0.0 | 3.2 ± 0.5 | HEXIM1 mRNA levels [26]: strongest effect; Mean Tm BAZ2B [21]: 1.4 ± 0.1 K; Mean Tm TAF1LA (1) [22]: 0.6 ± 0.3 K; Mean Tm BRD3 (2) [23]: 4.6 ± 0.7 K; Mean Tm BRD9 [24]: 1.0 ± 0.8 K; Mean Tm BRD3 (1) [25]: 3.8 ± 0.4 K

From publication PMC10878397, “Development of Potent Dual BET/HDAC Inhibitors via Pharmacophore Merging and Structure-Guided Optimization” (ACS Chemical Biology, 2024)
